Paper PMC4941640 (Cancer cell, 2015)
Like-named read-outs stand apart in the source and are kept apart here.

Assays:
A549 cells [1] = assay: p62 modulation by immunofluorescence; type: cell-based
DNA-PK [2] = target: T1, DNA-PK (Homo sapiens, UniProt P78527); details: DNA-PK vs p97, dose titration
mTOR = mTOR vs p97, dose titration
PIK3C3 = PIK3C3 vs p97, dose titration
DNA-PK [3] = target: T1, DNA-PK; details: A549 cells, 6 hr, nuclear phospho-H2AX
HCT116 xenograft tumors = details: 100 mg/kg single oral dose, 6 hr, nude mice
[4] = all dosing schedules tested, tumor-bearing mice, po
HCT 116 T688A xenografts = details: 90 mg/kg
AMO-1 xenograft = details: after 2 cycles of treatment, qd4/3off
HCT116 or A549 tumors = details: single administration, nude mice bearing HCT116 or A549 tumors
[5] = system: HEK293T cells stably expressing TCRα-GFP; assay: cells; details: Homo sapiens, HEK-293T, read-out: EC50, accumulation of TCRα-GFP
[6] = system: HEK293 cells expressing GFPu; assay: cells; details: Homo sapiens, HEK293, read-out: EC50, accumulation of GFPu
A549 cells [7] = assay: cells; details: Homo sapiens, A549, read-out: EC50, induction of CHOP protein
AMO-1 = assay: cells; details: Homo sapiens, AMO1, read-out: IC50 in vitro, AMO-1
350 cancer cell lines = assay: cells; details: 72 h

Cc1cc2c(C(N)=O)cccc2n1-c1nc2c(c(NCc3ccccc3)n1)COCC2 [CB-5083, 1-[4-(benzylamino)-5H,7H,8H-pyrano[4,3-d]pyrimidin-2-yl]-2-methyl-1H-indole-4-carboxamide]
effect on p62 levels (A549 cells [1]): rapidly cleared from cells
fold less affinity compared to p97 (DNA-PK [2]): 29.6 fold
fold less affinity compared to p97 (mTOR): 128 fold
fold less affinity compared to p97 (PIK3C3): 158 fold
inhibition of DNA-PK in cell-based assay (DNA-PK [3]): not to inhibit DNA-PK at concentrations that caused cell death
decrease of p62 protein levels in tumor (HCT116 xenograft tumors): 60%
weight loss [4]: < 10%
tumor growth inhibition (TGI) (HCT116 xenograft; 50 mg/kg po, qd): 62%
tumor growth inhibition (TGI) (HCT116 xenograft; 100 mg/kg po, qd4/3off): 78%
tumor growth of T688A mutant model (HCT 116 T688A xenografts): not inhibited
complete regressions of tumors (animals) (AMO-1 xenograft): 6/12
accumulation of poly-ubiquitin or CHOP in tumor tissue (HCT116 or A549 tumors): strong and sustained induction of polyubiquitin
EC50 [5]: 730 nM
EC50 [6]: 1050 nM
EC50 (A549 cells [7]): 1190 nM
IC50 (AMO-1): 81 nM
EC50 (350 cancer cell lines; read-out: EC50 of cell viability, lower end of range in panel): ≥ 81 nM
EC50 (350 cancer cell lines; read-out: EC50 of cell viability, upper end of range in panel): ≤ 2100 nM

CC(C)n1nc(-c2ccc3oc(N)nc3c2)c2c(N)ncnc21 [INK-128]
effect on p62 levels (A549 cells [1]): decrease in p62 levels

Cc1cc(OCc2nnc(SC3CCCC3)n2-c2cccnc2)ccc1-c1ccc(S(C)(=O)=O)cc1 [NMS-873]
effect on p62 levels (A549 cells [1]): decreases in p62 levels

CO/C1=C\C(C)=C\[C@@H](C)[C@@H](O)[C@@H](C)C/C(C)=C/C=C/[C@H](OC)[C@@H]([C@@H](C)[C@@H](O)[C@H](C)[C@@]2(O)C[C@@H](O)[C@H](C)[C@@H](C(C)C)O2)OC1=O [bafilomycin A1]
effect on p62 levels (A549 cells [1]): accumulation of p62 in peri-nuclear foci

CC(C)C[C@H](NC(=O)[C@H](Cc1ccccc1)NC(=O)c1cnccn1)B(O)O [bortezomib]
effect on p62 levels (A549 cells [1]): decreases in p62 levels
